ChEMBL document CHEMBL4507299, “Data for DCP probe PF-04554878” (2021)

How the values were obtained:
[1] = biological target: Cyclin-dependent kinase 4 (Homo sapiens) (UniProt P11802)
[2] = biological target: Dual specificity protein kinase CLK3 (Homo sapiens) (UniProt P49761)
[3] = test system: Tyrosine-protein kinase ABL1 (Homo sapiens), P00519 [F317I]
[4] = biological target: Serine/threonine-protein kinase ULK1 (Homo sapiens) (UniProt O75385)
[5] = biological target: Cyclin-dependent kinase 11A (Homo sapiens) (UniProt Q9UQ88)
[6] = biological target: RAC-alpha serine/threonine-protein kinase (Homo sapiens) (UniProt P31749)
[7] = biological target: Tyrosine-protein kinase JAK1 (Homo sapiens) (UniProt P23458)
[8] = test system: Mast/stem cell growth factor receptor Kit (Homo sapiens), P10721 [V559D]
[9] = biological target: Cyclin-dependent kinase 4 (Homo sapiens) (UniProt P11802); remark: listed apart in the source
[10] = biological target: Receptor-type tyrosine-protein kinase FLT3 (Homo sapiens) (UniProt P36888)
[11] = biological target: Serine/threonine-protein kinase LATS1 (Homo sapiens) (UniProt O95835)
[12] = biological target: Cyclin-dependent kinase 15 (Homo sapiens) (UniProt Q96Q40)
Sequence of Cyclin-dependent kinase 15 (Homo sapiens) (Q96Q40 whole entry): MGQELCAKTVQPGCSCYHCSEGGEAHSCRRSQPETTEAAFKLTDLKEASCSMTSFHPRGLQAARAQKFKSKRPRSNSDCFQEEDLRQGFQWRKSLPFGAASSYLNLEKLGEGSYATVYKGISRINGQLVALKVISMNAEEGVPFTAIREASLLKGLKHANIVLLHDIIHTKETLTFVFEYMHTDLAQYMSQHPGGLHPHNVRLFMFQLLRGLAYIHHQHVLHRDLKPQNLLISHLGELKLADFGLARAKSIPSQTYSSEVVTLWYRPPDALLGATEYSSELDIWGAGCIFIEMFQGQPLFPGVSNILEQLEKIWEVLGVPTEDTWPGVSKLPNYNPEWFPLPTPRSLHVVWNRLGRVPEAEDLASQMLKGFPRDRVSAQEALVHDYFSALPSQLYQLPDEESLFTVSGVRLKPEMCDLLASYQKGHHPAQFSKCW

[13] = test system: Leucine-rich repeat serine/threonine-protein kinase 2 (Homo sapiens), Q5S007 [G2019S]
[14] = biological target: Mitogen-activated protein kinase 6 (Homo sapiens) (UniProt Q16659)
[15] = test system: Tyrosine-protein kinase ABL1 (Homo sapiens), P00519 [M351T]
[16] = biological target: Non-receptor tyrosine-protein kinase TYK2 (Homo sapiens) (UniProt P29597)
[17] = biological target: Transient receptor potential cation channel subfamily M member 6 (Homo sapiens) (UniProt Q9BX84)
[18] = biological target: Serine/threonine-protein kinase 32B (Homo sapiens) (UniProt Q9NY57)
Sequence of Serine/threonine-protein kinase 32B (Homo sapiens) (Q9NY57 whole entry): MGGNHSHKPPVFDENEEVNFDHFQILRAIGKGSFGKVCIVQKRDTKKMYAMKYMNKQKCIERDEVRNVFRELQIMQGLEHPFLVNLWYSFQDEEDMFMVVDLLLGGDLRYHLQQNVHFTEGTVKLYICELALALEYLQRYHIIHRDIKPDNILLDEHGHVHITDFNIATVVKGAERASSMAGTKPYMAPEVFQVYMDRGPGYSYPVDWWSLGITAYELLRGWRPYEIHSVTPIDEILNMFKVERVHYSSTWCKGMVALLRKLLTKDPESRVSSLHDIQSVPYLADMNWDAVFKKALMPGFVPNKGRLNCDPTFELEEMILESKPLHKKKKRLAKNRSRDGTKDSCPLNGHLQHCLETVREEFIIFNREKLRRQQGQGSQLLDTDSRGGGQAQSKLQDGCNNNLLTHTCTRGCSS

[19] = biological target: Tyrosine-protein kinase receptor TYRO3 (Homo sapiens) (UniProt Q06418)
[20] = biological target: Serine/threonine-protein kinase MRCK beta (Homo sapiens) (UniProt Q9Y5S2)
Sequence of Serine/threonine-protein kinase MRCK beta (Homo sapiens) (Q9Y5S2 whole entry): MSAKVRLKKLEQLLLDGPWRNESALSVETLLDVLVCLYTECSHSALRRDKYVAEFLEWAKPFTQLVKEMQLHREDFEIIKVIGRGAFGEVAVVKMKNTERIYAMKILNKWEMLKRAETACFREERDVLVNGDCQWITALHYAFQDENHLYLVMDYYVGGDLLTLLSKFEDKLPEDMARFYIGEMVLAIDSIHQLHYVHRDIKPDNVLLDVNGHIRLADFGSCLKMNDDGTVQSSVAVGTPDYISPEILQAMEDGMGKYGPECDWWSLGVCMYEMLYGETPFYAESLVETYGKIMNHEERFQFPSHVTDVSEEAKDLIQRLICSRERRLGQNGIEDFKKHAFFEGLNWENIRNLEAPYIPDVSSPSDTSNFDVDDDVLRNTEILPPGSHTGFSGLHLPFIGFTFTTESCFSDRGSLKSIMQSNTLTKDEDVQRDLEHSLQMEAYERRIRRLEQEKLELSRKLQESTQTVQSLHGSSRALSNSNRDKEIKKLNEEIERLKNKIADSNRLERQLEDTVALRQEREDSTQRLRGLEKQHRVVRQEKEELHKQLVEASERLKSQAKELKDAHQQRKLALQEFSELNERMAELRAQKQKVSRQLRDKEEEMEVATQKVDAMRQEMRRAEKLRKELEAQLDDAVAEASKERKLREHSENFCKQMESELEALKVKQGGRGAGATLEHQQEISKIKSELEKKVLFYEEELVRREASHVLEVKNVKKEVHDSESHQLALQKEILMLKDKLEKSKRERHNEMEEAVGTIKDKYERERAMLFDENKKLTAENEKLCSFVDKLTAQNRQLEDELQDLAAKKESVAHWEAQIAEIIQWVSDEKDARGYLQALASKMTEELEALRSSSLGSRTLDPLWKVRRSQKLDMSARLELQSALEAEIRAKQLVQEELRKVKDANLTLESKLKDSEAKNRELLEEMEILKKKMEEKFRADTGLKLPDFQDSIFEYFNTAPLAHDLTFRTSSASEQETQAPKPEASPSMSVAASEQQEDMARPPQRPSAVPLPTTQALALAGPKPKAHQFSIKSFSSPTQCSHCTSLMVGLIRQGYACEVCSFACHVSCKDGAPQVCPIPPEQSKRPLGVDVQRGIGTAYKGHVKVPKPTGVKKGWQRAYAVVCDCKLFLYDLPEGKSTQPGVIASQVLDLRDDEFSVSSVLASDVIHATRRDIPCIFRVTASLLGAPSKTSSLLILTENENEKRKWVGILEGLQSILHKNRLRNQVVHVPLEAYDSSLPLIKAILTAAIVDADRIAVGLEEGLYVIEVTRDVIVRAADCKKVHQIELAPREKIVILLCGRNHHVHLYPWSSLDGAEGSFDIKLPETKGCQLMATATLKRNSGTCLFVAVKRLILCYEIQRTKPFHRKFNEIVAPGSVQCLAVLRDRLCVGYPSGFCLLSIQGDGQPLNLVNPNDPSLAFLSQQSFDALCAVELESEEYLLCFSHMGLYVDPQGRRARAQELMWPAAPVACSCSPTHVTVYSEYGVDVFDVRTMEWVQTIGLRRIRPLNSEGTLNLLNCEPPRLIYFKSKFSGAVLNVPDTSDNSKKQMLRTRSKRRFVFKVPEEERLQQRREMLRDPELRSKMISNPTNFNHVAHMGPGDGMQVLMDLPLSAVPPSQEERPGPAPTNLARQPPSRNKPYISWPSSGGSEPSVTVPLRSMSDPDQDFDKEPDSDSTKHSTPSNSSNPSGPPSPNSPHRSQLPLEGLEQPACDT

[21] = biological target: Serine/threonine-protein kinase PAK 5 (Homo sapiens) (UniProt Q9P286)
Sequence of Serine/threonine-protein kinase PAK 5 (Homo sapiens) (Q9P286 whole entry, looked up): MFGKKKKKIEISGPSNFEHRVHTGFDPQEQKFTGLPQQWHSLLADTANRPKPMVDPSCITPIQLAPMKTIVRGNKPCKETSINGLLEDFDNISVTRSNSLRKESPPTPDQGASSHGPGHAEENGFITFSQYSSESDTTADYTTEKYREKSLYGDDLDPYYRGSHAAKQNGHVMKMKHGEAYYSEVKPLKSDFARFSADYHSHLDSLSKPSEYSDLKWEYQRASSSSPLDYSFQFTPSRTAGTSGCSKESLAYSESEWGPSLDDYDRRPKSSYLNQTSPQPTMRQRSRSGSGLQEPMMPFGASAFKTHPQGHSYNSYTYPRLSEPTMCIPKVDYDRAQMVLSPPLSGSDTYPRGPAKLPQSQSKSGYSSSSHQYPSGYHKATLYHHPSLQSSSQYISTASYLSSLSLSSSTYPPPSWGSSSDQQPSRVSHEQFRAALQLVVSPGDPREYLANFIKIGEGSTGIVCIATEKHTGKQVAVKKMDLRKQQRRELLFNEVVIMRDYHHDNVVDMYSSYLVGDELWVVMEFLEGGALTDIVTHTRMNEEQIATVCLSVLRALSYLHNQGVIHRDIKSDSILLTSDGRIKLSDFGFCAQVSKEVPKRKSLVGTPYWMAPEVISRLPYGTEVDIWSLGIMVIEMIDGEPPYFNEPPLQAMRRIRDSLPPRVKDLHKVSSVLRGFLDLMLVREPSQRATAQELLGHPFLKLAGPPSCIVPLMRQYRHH

[22] = biological target: Ribosomal protein S6 kinase alpha-1 (Homo sapiens) (UniProt Q15418)
[23] = biological target: Bone morphogenetic protein receptor type-1A (Homo sapiens) (UniProt P36894)
Sequence of Bone morphogenetic protein receptor type-1A (Homo sapiens) (P36894 whole entry): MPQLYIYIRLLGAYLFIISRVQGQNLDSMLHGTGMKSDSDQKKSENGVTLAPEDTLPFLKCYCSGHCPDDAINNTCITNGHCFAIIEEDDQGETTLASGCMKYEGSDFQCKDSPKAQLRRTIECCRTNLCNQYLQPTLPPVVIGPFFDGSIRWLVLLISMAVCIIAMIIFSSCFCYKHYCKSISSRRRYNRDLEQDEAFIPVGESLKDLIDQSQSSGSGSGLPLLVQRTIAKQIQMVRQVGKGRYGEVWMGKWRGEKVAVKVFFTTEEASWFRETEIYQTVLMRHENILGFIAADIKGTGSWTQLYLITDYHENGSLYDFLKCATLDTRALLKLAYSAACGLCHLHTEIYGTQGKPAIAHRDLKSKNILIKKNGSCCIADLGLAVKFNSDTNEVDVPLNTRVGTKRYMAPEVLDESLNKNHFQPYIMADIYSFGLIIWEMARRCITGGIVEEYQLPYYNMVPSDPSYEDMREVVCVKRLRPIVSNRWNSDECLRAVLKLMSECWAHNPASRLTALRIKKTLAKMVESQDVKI

[24] = biological target: Serine/threonine-protein kinase MARK2 (Homo sapiens) (UniProt Q7KZI7)
[25] = biological target: Dual specificity tyrosine-phosphorylation-regulated kinase 1B (Homo sapiens) (UniProt Q9Y463)
[26] = biological target: Ephrin type-A receptor 2 (Homo sapiens) (UniProt P29317)
[27] = biological target: Vascular endothelial growth factor receptor 1 (Homo sapiens, UniProt P17948)
[28] = test system: Epidermal growth factor receptor (Homo sapiens), P00533 [UNDEFINED MUTATION]
[29] = biological target: Activin receptor type-1-like (Homo sapiens) (UniProt P37023)
[30] = biological target: T1, Serine/threonine-protein kinase TAO3 (Homo sapiens) (UniProt Q9H2K8)
T1 sequence (whole entry): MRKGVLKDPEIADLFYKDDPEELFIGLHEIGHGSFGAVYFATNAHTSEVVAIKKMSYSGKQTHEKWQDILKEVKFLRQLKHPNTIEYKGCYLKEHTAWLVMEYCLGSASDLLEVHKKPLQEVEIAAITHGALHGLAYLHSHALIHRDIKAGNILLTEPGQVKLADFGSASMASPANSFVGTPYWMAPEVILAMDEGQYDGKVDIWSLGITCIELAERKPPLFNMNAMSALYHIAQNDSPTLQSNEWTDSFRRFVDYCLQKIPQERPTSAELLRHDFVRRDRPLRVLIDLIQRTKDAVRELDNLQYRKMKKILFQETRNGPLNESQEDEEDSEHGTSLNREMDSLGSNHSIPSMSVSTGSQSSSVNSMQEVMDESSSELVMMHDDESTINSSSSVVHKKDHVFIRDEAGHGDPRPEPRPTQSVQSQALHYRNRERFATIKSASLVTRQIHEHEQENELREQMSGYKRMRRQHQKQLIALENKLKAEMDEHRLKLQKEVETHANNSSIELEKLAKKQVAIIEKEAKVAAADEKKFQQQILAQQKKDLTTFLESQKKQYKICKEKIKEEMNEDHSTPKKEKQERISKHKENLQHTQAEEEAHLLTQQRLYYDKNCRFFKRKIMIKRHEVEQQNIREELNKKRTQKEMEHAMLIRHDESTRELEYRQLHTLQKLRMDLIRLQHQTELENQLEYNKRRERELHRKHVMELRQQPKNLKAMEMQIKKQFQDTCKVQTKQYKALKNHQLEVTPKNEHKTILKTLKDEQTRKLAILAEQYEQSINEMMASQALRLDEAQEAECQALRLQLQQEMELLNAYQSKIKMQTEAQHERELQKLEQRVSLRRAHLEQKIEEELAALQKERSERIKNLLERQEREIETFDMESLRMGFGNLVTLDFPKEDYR

[31] = biological target: Dual specificity tyrosine-phosphorylation-regulated kinase 1A (Homo sapiens) (UniProt Q13627)
[32] = biological target: Mitogen-activated protein kinase kinase kinase 14 (Homo sapiens) (UniProt Q99558)
Sequence of Mitogen-activated protein kinase kinase kinase 14 (Homo sapiens) (Q99558 whole entry, looked up): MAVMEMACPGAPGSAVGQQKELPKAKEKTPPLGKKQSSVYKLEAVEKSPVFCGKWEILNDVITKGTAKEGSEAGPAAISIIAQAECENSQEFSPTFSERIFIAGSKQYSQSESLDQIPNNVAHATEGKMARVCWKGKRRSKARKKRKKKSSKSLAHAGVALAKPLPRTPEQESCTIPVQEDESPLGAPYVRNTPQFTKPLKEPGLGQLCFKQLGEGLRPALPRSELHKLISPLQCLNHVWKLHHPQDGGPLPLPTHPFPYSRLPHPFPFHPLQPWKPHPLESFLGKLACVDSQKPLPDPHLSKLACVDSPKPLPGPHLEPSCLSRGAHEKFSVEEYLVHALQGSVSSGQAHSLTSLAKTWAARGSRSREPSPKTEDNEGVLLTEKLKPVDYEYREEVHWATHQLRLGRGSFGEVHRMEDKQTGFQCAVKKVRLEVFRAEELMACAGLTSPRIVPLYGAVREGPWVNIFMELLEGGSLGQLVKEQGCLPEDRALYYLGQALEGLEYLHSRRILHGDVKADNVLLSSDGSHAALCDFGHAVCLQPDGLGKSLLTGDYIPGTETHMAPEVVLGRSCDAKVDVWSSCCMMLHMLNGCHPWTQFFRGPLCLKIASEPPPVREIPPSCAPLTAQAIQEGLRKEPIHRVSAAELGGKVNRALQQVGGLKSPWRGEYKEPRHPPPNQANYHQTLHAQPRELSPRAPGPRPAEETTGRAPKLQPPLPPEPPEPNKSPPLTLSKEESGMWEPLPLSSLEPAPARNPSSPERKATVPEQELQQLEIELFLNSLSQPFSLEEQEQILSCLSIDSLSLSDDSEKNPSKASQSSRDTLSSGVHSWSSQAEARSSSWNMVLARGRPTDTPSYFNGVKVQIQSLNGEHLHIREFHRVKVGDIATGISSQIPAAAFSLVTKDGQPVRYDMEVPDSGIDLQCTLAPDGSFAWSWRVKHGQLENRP

[33] = biological target: Receptor tyrosine-protein kinase erbB-2 (Homo sapiens) (UniProt P04626)
[34] = Compound concentration 100.0 nM
[35] = Compound concentration 1000.0 nM

Measured: residual activity

Sequence of Cyclin-dependent kinase 4 (Homo sapiens) (P11802 whole entry): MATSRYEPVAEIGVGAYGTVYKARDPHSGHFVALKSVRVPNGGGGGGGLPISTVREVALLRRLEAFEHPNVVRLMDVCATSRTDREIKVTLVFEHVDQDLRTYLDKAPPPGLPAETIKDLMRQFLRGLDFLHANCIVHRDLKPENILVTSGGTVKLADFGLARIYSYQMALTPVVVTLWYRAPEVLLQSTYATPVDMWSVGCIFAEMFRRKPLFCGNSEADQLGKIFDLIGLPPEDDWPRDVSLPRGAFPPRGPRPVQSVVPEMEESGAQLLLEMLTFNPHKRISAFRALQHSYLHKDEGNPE

CNC(=O)c1ccc(Nc2ncc(C(F)(F)F)c(NCc3nccnc3N(C)S(C)(=O)=O)n2)cc1 [DEFACTINIB]
active: [4]; [34] 47% | [7]; [34] 28% | [10]; [34] 46% | [16]; [34] 27% | [30]; [34] 26%
inactive: [1]; [34] 100% | [2]; [34] 97% | [3]; [34] 100% | [5]; [34] 77% | [6]; [34] 100% | [8]; [34] 92% | [9]; [34] 100% | [11]; [34] 96% | [12]; [34] 67% | [13]; [34] 65% | [14]; [34] 71% | [15]; [34] 100% | [17]; [34] 98% | [18]; [34] 97% | [19]; [34] 100% | [20]; [34] 90% | [21]; [34] 62% | [22]; [34] 71% | [23]; [34] 100% | [24]; [34] 66% | [25]; [34] 79% | [26]; [34] 86% | [27]; [34] 63% | [28]; [34] 91% | [29]; [34] 100% | [31]; [34] 71% | [32]; [34] 92% | [33]; [34] 100%

CN(c1ccnc(CNc2nc(Nc3ccc4c(c3)CC(=O)N4)ncc2C(F)(F)F)n1)S(C)(=O)=O [PF-00911705]
inactive: [1]; [35] 63% | [3]; [35] 79% | [5]; [35] 94% | [6]; [35] 100% | [7]; [35] 94% | [8]; [35] 75% | [9]; [35] 100% | [11]; [35] 51% | [12]; [35] 63% | [14]; [35] 66% | [15]; [35] 62% | [17]; [35] 86% | [18]; [35] 100% | [19]; [35] 99% | [20]; [35] 100% | [21]; [35] 76% | [22]; [35] 68% | [23]; [35] 89% | [26]; [35] 80% | [27]; [35] 69% | [29]; [35] 100% | [32]; [35] 65% | [33]; [35] 100%
active: [2]; [35] 12% | [4]; [35] 1.2% | [10]; [35] 23% | [13]; [35] 7.3% | [16]; [35] 27% | [24]; [35] 47% | [25]; [35] 31% | [28]; [35] 44% | [30]; [35] 12% | [31]; [35] 19%
